Key:
[1] = Cytotoxicity determination in HepG2.2.15 cells (CCK-8); format: cell-based; details: human, 6 days treatment, CCK-8, highest concentration 100 uM
How it was run: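 CC50 derived from CCK-8 absorbance (450 nm, 630 nm reference) after 2.5 h incubation at 37 °C. Before that, HepG2.2.15 cells (5,000/well, 2% FBS) received an 8-point, 3-fold compound series topping at 100 uM for 6 days, with one mid-treatment medium change.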

HBV = experiment: Anti-viral assay in HepG2.2.15 cells: HBV inhibitory activity (HBV DNA in culture medium by q-PCR); format: cell-based; details: Hepatitis B virus, HepG2.2.15, 144 h, HepG2.2.15 cells, 6 days treatment, HBV DNA in culture medium by q-PCR, highest concentration 10 uM; read-out: EC50
How it was run: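 HBV DNA released into the medium was measured by q-PCR after 6-day compound exposure of HepG2.2.15 cells (40,000/well, 2% FBS, one mid-course medium change). Eight 3-fold dilutions, highest 10 uM; EC50 derived by curve fitting.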

SMILES | CC50 at 6 days [1] [nM] | EC50 (HBV) [nM]
CCOC(=O)C1=C(C2CCN(c3cc(C(F)(F)F)c(C(=O)O)cn3)CC2)NC(c2nccs2)=NC1c1ccc(F)c(F)c1Cl (single isomer, unassigned) [II-44-B, 6-(4-(6-(2-Chloro-3,4-difluorophenyl)-5-(ethoxycarbonyl)-2-(thiazol-2-yl)-3,6-dihydropyrimidin-4-yl)piperidin-1-yl)-4-(trifluoromethyl)nicotinic Acid] | 4770 | 7.6
CCOC(=O)C1=C(C2CCN(c3ncc(C(=O)O)cc3F)CC2)NC(c2nccs2)=NC1c1ccc(F)c(F)c1Cl (single isomer, unassigned) [II-45-B, 6-(4-(6-(2-Chloro-3,4-difluorophenyl)-5-(ethoxycarbonyl)-2-(thiazol-2-yl)-3,6-dihydropyrimidin-4-yl)piperidin-1-yl)-5-fluoronicotinic Acid] | 4430 | 8.7
CCOC(=O)C1=C(C2CCN(c3cc(C)c(C(=O)O)nn3)CC2)NC(c2nccs2)=NC1c1ccc(F)c(F)c1Cl (single isomer, unassigned) [II-46-B, 6-(4-(6-(2-Chloro-3,4-difluorophenyl)-5-(ethoxycarbonyl)-2-(thiazol-2-yl)-3,6-dihydropyrimidin-4-yl)piperidin-1-yl)-4-methylpyridazine-3-carboxylic Acid] | 3670 | 100
CCOC(=O)C1=C(C2CCN(c3cnc(OC)c(C(=O)O)n3)CC2)NC(c2nccs2)=NC1c1ccc(F)c(F)c1Cl (single isomer, unassigned) [II-47-B, 6-(4-(6-(2-chloro-3,4-difluorophenyl)-5-(ethoxycarbonyl)-2-(thiazol-2-yl)-3,6-dihydropyrimidin-4-yl)piperidin-1-yl)-3-methoxypyrazine-2-carboxylic Acid] | 11100 | 25
CCOC(=O)C1=C(C2CCN(c3cnc(C)c(C(=O)O)n3)CC2)NC(c2nccs2)=NC1c1ccc(F)c(F)c1Cl (single isomer, unassigned) [II-48-B, 6-(4-(6-(2-chloro-3,4-difluorophenyl)-5-(ethoxycarbonyl)-2-(thiazol-2-yl)-3,6-dihydropyrimidin-4-yl)piperidin-1-yl)-3-methylpyrazine-2-carboxylic Acid] | 12900 | 79
CCOC(=O)C1=C(C2CCN(c3cnc(C(=O)O)c(C)n3)CC2)NC(c2nccs2)=NC1c1ccc(F)c(F)c1Cl (single isomer, unassigned) [II-49-B, 5-(4-(6-(2-Chloro-3,4-difluorophenyl)-5-(ethoxycarbonyl)-2-(thiazol-2-yl)-3,6-dihydropyrimidin-4-yl)piperidin-1-yl)-3-methylpyrazine-2-carboxylic Acid] | 110 | 50
CCOC(=O)C1=C(C2CCN(c3ncc(C(=O)O)o3)CC2)NC(c2nccs2)=NC1c1ccc(F)c(F)c1Cl (single isomer, unassigned) [II-50-B, 2-(4-(6-(2-Chloro-3,4-difluorophenyl)-5-(ethoxycarbonyl)-2-(thiazol-2-yl)-3,6-dihydropyrimidin-4-yl)piperidin-1-yl)oxazole-5-carboxylic Acid] | 19000 | 26
CCOC(=O)C1=C(C2CCN(c3cnc(C(=O)O)cn3)CC2)NC(c2nccs2)=NC1c1ccc(F)c(F)c1Cl (single isomer, unassigned) [II-51-B, 5-(4-(6-(2-Chloro-3,4-difluorophenyl)-5-(ethoxycarbonyl)-2-(thiazol-2-yl)-3,6-dihydropyrimidin-4-yl)piperidin-1-yl)pyrazine-2-carboxylic Acid] | 670 | < 4.6
CCOC(=O)C1=C(C2CCN(c3cc(C(=O)O)nc(OC)n3)CC2)NC(c2nccs2)=NC1c1ccc(F)c(F)c1Cl (single isomer, unassigned) [II-52-B, 6-(4-(6-(2-Chloro-3,4-difluorophenyl)-5-(ethoxycarbonyl)-2-(thiazol-2-yl)-3,6-dihydropyrimidin-4-yl)piperidin-1-yl)-2-methoxypyrimidine-4-carboxylic Acid] | 3700 | 51
CCOC(=O)C1=C(C2CCN(c3cc(C(=O)O)nc(C)n3)CC2)NC(c2nccs2)=NC1c1ccc(F)c(F)c1Cl (single isomer, unassigned) [II-53-B, 6-(4-(6-(2-Chloro-3,4-difluorophenyl)-5-(ethoxycarbonyl)-2-(thiazol-2-yl)-3,6-dihydropyrimidin-4-yl)piperidin-1-yl)-2-methylpyrimidine-4-carboxylic Acid] | 9050 | 98
CCOC(=O)C1=C(C2CCN(c3cc(C(=O)O)ncn3)CC2)NC(c2nccs2)=NC1c1ccc(F)c(F)c1Cl (single isomer, unassigned) [II-54-B, 6-(4-(6-(2-Chloro-3,4-difluorophenyl)-5-(ethoxycarbonyl)-2-(thiazol-2-yl)-3,6-dihydropyrimidin-4-yl)piperidin-1-yl)pyrimidine-4-carboxylic Acid] | 10300 | 19
CCOC(=O)C1=C(C2CCN(c3ncc([C@]4(O)C[C@@H](C(=O)O)C4)cn3)CC2)NC(c2nccs2)=NC1c1ccc(F)c(F)c1Cl (single isomer, unassigned) [II-55-B, (trans)-3-(2-(4-(6-(2-Chloro-3,4-difluorophenyl)-5-(ethoxycarbonyl)-2-(thiazol-2-yl)-3,6-dihydropyrimidin-4-yl)piperidin-1-yl)pyrimidin-5-yl)-3-hydroxycyclobutanecarboxylic Acid] | 7960 | < 4.6
CCOC(=O)C1=C(C2CCN(c3nc(C)c(C)c(C(=O)O)n3)CC2)NC(c2nccs2)=NC1c1ccc(F)c(F)c1Cl (single isomer, unassigned) [II-56-B, 2-(4-(6-(2-Chloro-3,4-difluorophenyl)-5-(ethoxycarbonyl)-2-(thiazol-2-yl)-3,6-dihydropyrimidin-4-yl)piperidin-1-yl)-5,6-dimethylpyrimidine-4-carboxylic Acid] | 5540 | 22
CCOC(=O)C1=C(C2CCN(c3nc(OC)cc(C(=O)O)n3)CC2)NC(c2nccs2)=NC1c1ccc(F)c(F)c1Cl (single isomer, unassigned) [II-57-B, 2-(4-(6-(2-chloro-3,4-difluorophenyl)-5-(ethoxycarbonyl)-2-(thiazol-2-yl)-3,6-dihydropyrimidin-4-yl)piperidin-1-yl)-6-methoxypyrimidine-4-carboxylic Acid] | 4880 | 100
CCOC(=O)C1=C(C2CCN(c3nc(C)cc(C(=O)O)n3)CC2)NC(c2nccs2)=NC1c1ccc(F)c(F)c1Cl (single isomer, unassigned) [II-58-B, 2-(4-(6-(2-Chloro-3,4-difluorophenyl)-5-(ethoxycarbonyl)-2-(thiazol-2-yl)-3,6-dihydropyrimidin-4-yl)piperidin-1-yl)-6-methylpyrimidine-4-carboxylic Acid] | 4800 | 37
CCOC(=O)C1=C(C2CCN(c3ncc(C(C)C)c(C(=O)O)n3)CC2)NC(c2nccs2)=NC1c1ccc(F)c(F)c1Cl (single isomer, unassigned) [II-59-B, 2-(4-(6-(2-Chloro-3,4-difluorophenyl)-5-(ethoxycarbonyl)-2-(thiazol-2-yl)-3,6-dihydropyrimidin-4-yl)piperidin-1-yl)-5-isopropylpyrimidine-4-carboxylic Acid] | 8650 | 13
